Consider 1 molecule from patent publication US9636308B2, “High drug load buprenorphine microspheres and method of producing same” (Oakwood Laboratories LLC, priority 2013, dated 2017).

The data set in a line: Solubility of buprenorphine in solvent systems by visual observation.

Structures are written as SMILES.

Text: DCM was used as the main solvent and BzOH as the co-solvent.

For the molecule `CO[C@@]12CC[C@@]3(C[C@@H]1[C@](C)(O)C(C)(C)C)[C@H]1Cc4ccc(O)c5c4[C@@]3(CCN1CC1CC1)[C@H]2O5.Cl` [Buprenorphine (salt form), Buprenorphine hydrochloride], the “Increase of solubility by addition of BzOH to DCM” value (DCM:BzOH 2:1 by weight versus DCM alone) is given as around 46 fold. Further, the “Solubility” value by setting is: (solvent DCM with benzyl alcohol co-solvent (33% by weight; 2:1 DCM:BzOH)) 0.083 g/g; (solvent DCM, no co-solvent) 0.0018 g/g.
